Measurements from US4804749A, “20-O-Acyl-19,20-enolmacrolide antibiotic derivatives” (Toyo Jozo Co., Ltd., priority 1986, dated 1989).
In brackets after ≈: the same amount, converted by molar mass.

Key:
[1] = Antibiotics levels in blood upon oral administration at 100 mg/kg to mice (by the paper disk method); assay type: in vivo; conditions: mouse, ND: Below detectable limit; for Cmax: read-out: Antibiotics levels in blood upon oral administration: Peak value
Experimental: (§1) Antibacterial activities of certain compounds (I) of this invention and corresponding 19-formylmacrolide antibiotics as well as their levels in blood and therapeutic effects for infectious diseases upon their oral administration are compared in Table 2.
Antibiotics levels in blood
upon oral administration at
100 mg/kg to mice (by the paper
disk method) (μg · h/ml)

S. aureus, 209P = experiment: MIC against S. aureus, 209P; assay type: cell-based; conditions: Staphylococcus aureus
Source text: as §1
MIC (μg/ml): S. aureus, 209P

S. pyogenes, S-23 [2] = experiment: MIC against infective microorganism S. pyogenes, S-23; assay type: cell-based; conditions: Streptococcus pyogenes, S23
Source text: as §1

S. pyogenes, S-23 [3] = experiment: Treatment results of infectious diseases of mice by oral administration; assay type: in vivo; conditions: Streptococcus pyogenes, S23; mice infected with S. pyogenes S-23, oral administration
Source text: as §1
infectious diseases of mice

Structure (SMILES) | AUC [1] | Cmax [1] | MIC (S. aureus, 209P) | MIC (S. pyogenes, S-23 [2]) | ED50 (S. pyogenes, S-23 [3])
CCC(=O)OC=CC1CC(C)C(=O)C=CC(C)=CC(COC2OC(C)CC(OC)C2OC)C(CC)OC(=O)CC(OC(=O)CC)C(C)C1OC1OC(C)C(O)C(N(C)C)C1O (stereo not drawn) [Example 2b, 3,20-Di-O-propionyl-19, 20-enol-4"-deoxydesmycosin] | 2800 ng·h/mL | 2630 ng/mL | 0.39 µg/mL (≈ 0.449 µM) | – | –
CCC(=O)OC1CC(=O)OC(CC)C(COC2OC(C)CC(OC)C2OC)C=C(C)C=CC(=O)C(C)CC(CC=O)C(OC2OC(C)C(O)C(N(C)C)C2O)C1C (stereo not drawn) [Example 2a, 3O--Propionyl-4"-deoxydesmycosin, reference compound] | 1570 ng·h/mL | 420 ng/mL | 0.2 µg/mL (≈ 0.246 µM) | – | –
CCC(=O)OC=CC1CC(C)C(=O)C=CC(C)=CC(COC2OC(C)C(O)C(OC)C2OC)C(CC)OC(=O)CC(OC(=O)CC)C(C)C1OC1OC(C)CC(N(C)C)C1O (stereo not drawn) [Example 3b, 3,20-Di-O-propionyl-19,20-enol-4'-deoxydesmycosin] | 4900 ng·h/mL | 2710 ng/mL | 0.39 µg/mL (≈ 0.449 µM) | 0.2 µg/mL (≈ 0.23 µM) | 59 mg/kg
CCC(=O)OC=CC1CC(C)C(=O)C=CC(C)=CC(COC(=O)N(C)C)C(CC)OC(=O)CC(OC(=O)CC)C(C)C1OC1OC(C)C(O)C(N(C)C)C1O (stereo not drawn) [Ib, 3,20-Di-O-propionyl-19,20-enol-23-O-dimethylcarbamoyl-OMT] | 6000 ng·h/mL | 3000 ng/mL | 0.78 µg/mL (≈ 0.999 µM) | 0.78 µg/mL (≈ 0.999 µM) | 100 to 200 mg/kg
CCC(=O)OC1CC(=O)OC(CC)C(COC2OC(C)C(O)C(OC)C2OC)C=C(C)C=CC(=O)C(C)CC(CC=O)C(OC2OC(C)CC(N(C)C)C2O)C1C (stereo not drawn) [Example 3a, 3O--Propionyl-4'deoxydesmycosin, reference compound] | 1790 ng·h/mL | 430 ng/mL | 0.2 µg/mL (≈ 0.246 µM) | 0.05 µg/mL (≈ 0.0616 µM) | > 200 mg/kg
CCC(=O)OC1CC(=O)OC(CC)C(COC(=O)N(C)C)C=C(C)C=CC(=O)C(C)CC(CC=O)C(OC2OC(C)C(O)C(N(C)C)C2O)C1C (stereo not drawn) [Ia, 3O--Propionyl-23-O--dimethylcarbamoyl-OMT, reference compound] | – | – | 0.2 µg/mL (≈ 0.276 µM) | 0.1 µg/mL (≈ 0.138 µM) | > 400 mg/kg
